Tested on: Bacillus subtilis ATCC 6633
Experiment: Filter disc bioassay, zones of inhibition in B. subtilis lawn
Assay type: cell-based
Conditions: 10-fold dilution series of 1.1 mg in 200 μl methanol, 10 μl per filter disc; indicator strain Bacillus subtilis ATCC 6633
Experimental: Cosmid no 7 which has been isolated from a Streptomyces fradiae cosmid library, was kindly provided by J. Corts. E. coli transformants were selected with 100 ug/ml ampicillin. The Saccharopolyspora erythraea NRRL 2338-red variant strain (Hessler et al., Appl. Microbiol. Biotechnol. (1997) 47:398-404) was kindly provided by J. M. Weber and was routinely maintained on M1-102 agar (Kaneda et al. J. Biol. Chem. (1962) 237:322-327), R2T20 (Yamamoto et al. J. Antibiot. (1986) 34:1304-1313), R2T2 (same as R2T (Weber et al. J. Bacterial. (1985)164:425-433), but without peptone), and TSB (Difco) for liquid cultures at 30° C. Bacillus subtilis ATCC 6633 was used in bioassays to assess erythromycin production as described (Gaisser et al. (1997), supra). […] Both metabolites (10 μl of 10 mM stock solution) were applied to agar wells cut into the S. erythraea lawn and incubated at 30° C. overnight as described (Gaisser et al. (1997) supra) and the development of zones of inhibition in the B. subtilis lawn around S. erythraea colonies was assessed. […]
Bacillus subtilis ATCC 6633 was used in bioassays as described previously (Gaisser et al., 1998). […] The development of zones of inhibition in the B. subtilis lawn was assessed.

## CCC1OC(=O)C(C)C(OC2OC(C)C(O)C(O)C2OC)C(C)C(OC2OC(C)CC(N(C)C)C2O)C(C)(O)CC(C)C(=O)C(C)C(O)C1C (stereo not shown) [3-O-(2′-O-methylrhamnosyl)erythromycin D]
  bioactivity, fold less compared to erythromycin A (size of the halos around filter discs): about 100 fold
